# Measurements reported in the Kinase Knowledgebase extract (Sharma et al. 2016).
# Target: ROCK2 (human) (UniProt O75116)
# Assay: Inhibition of ROCK2 Kinase Activity
# Conditions: for inhibition: concentration not given here
# Sequence of ROCK2 (human) (O75116 whole entry, looked up): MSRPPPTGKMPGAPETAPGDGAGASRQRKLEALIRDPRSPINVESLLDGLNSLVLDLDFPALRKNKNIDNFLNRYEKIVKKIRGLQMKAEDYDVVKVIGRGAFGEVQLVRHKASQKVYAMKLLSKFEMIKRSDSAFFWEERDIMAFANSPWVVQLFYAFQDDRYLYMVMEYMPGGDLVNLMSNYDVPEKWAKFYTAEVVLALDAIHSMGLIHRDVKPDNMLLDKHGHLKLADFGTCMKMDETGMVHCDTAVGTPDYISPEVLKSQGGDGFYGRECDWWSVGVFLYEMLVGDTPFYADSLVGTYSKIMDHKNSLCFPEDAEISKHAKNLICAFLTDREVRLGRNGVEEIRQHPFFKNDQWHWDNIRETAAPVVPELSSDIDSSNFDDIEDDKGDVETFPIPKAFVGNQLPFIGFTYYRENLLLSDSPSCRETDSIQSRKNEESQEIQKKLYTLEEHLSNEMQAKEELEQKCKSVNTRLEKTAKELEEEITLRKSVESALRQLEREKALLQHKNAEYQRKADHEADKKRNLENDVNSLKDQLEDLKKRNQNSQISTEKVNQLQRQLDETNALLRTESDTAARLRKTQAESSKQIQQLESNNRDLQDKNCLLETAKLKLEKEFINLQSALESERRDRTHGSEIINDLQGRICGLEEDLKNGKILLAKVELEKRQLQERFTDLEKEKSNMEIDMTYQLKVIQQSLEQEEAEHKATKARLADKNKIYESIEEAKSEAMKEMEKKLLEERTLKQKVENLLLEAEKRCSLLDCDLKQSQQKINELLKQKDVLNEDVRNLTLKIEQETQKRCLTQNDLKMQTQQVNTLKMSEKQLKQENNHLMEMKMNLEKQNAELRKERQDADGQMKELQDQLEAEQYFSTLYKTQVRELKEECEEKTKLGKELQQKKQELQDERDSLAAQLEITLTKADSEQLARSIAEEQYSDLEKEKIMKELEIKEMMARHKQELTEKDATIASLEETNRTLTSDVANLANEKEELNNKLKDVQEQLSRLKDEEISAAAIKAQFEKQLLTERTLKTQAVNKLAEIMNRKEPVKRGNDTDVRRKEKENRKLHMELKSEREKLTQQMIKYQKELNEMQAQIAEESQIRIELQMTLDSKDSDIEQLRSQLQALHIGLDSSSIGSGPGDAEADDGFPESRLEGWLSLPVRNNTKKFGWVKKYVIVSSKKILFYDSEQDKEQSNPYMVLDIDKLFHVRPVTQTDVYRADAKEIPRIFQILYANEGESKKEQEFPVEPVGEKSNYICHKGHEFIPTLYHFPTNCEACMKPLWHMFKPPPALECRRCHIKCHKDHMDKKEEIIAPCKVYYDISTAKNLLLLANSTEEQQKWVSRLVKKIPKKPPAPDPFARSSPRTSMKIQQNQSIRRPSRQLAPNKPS
inhibition [%],IC50 [µM],SMILES
25,,CC(C)N(N)[C@H]1CC[C@@H](C(=O)Nc2ccncc2)CC1
63,,CN(N)[C@H]1CC[C@H](C(=O)Nc2ccncc2)CC1
45,,CCCN(N)[C@H]1CC[C@H](C(=O)Nc2ccncc2)CC1
32,,NN(Cc1ccccc1)[C@H]1CC[C@@H](C(=O)Nc2ccncc2)CC1
61,,NN(Cc1ccccc1)[C@H]1CC[C@H](C(=O)Nc2ccncc2)CC1
46,,NN(CCc1ccccc1)[C@H]1CC[C@H](C(=O)Nc2ccncc2)CC1
43,,CC(C)CCN(N)[C@H]1CC[C@H](C(=O)Nc2ccncc2)CC1
53,6.5,CCCCCCCCN(N)[C@H]1CC[C@H](C(=O)Nc2ccncc2)CC1
45,,CC(C)N(N)[C@H]1CC[C@H](C(=O)Nc2ccncc2)CC1
40,,NN(CC1CCCCC1)[C@H]1CC[C@H](C(=O)Nc2ccncc2)CC1
0,,C=CCC(N)[C@H]1CC[C@H](C(=O)Nc2ncnc3[nH]cnc23)CC1 (stereo partly drawn)
45,,C=CCC(NC)[C@H]1CC[C@H](C(=O)Nc2ccncc2)CC1 (stereo partly drawn)
59,,NN(Cc1ccc(OCc2ccccc2)cc1)[C@H]1CC[C@H](C(=O)Nc2ccncc2)CC1
33,,CN(N)[C@H]1CC[C@@H](C(=O)Nc2ccncc2)CC1
13,,CC(C)CCN(N)[C@H]1CC[C@@H](C(=O)Nc2ccncc2)CC1
45,,NN(CC(c1ccccc1)c1ccccc1)[C@H]1CC[C@H](C(=O)Nc2ccncc2)CC1
19,,CCCN(N)[C@H]1CC[C@@H](C(=O)Nc2ccncc2)CC1
63,,C=CC[C@H](N)[C@H]1CC[C@H](C(=O)Nc2ccncc2)CC1
81,1.9,C=CC[C@@H](N)[C@H]1CC[C@H](C(=O)Nc2ccncc2)CC1
44,,C=CCC(NCc1ccccc1)[C@H]1CC[C@H](C(=O)Nc2ccncc2)CC1 (stereo partly drawn)
49,,NN(C/C=C/c1ccccc1)[C@H]1CC[C@H](C(=O)Nc2ccncc2)CC1
